Source: ChEMBL document CHEMBL5506031, “Design, Synthesis, Bioactive Evaluation, and Molecular Dynamics Simulation of Novel 4H-Pyrano[3,2-c]pyridine Analogues as Potential Sterol 14α-Demethylase (CYP51) Inhibitors” (J Med Chem, 2024)
In brackets after ≈: the same amount, converted by molar mass.

Assays:
[1] = test system: Sclerotinia sclerotiorum; assay: Fungicidal activity against Sclerotinia sclerotiorum assessed as fungal inhibitory rate at 16 ug/ml relative to control; type: functional
[2] = test system: Botrytis cinerea; assay: Fungicidal activity against Botrytis cinerea assessed as fungal inhibitory rate at 16 ug/ml relative to control; type: functional
[3] = test system: Fusarium oxysporum; assay: Fungicidal activity against Fusarium oxysporum assessed as fungal inhibitory rate at 16 ug/ml relative to control; type: functional
[4] = test system: Aspergillus niger; assay: Antifungal activity against Aspergillus niger; type: functional
[5] = test system: Colletotrichum lagenaria; assay: Fungicidal activity against Colletotrichum lagenarium assessed as fungal inhibitory rate at 16 ug/ml relative to control; type: functional
[6] = test system: Penicillium digitatum; assay: Fungicidal activity against Penicillium digitatum assessed as fungal inhibitory rate at 16 ug/ml relative to control; type: functional
[7] = test system: Botrytis cinerea; assay: Fungicidal activity against Botrytis cinerea assessed as fungal growth reduction; type: functional, organism-based
[8] = Inhibition of Botrytis cinerea CYP51 by ELISA

## COC(=O)C1=C(N)OC2=C(CN(C)C/C2=C\c2ccc(Br)o2)C1c1ccc(Br)o1 (stereo not drawn)
[1]
  inhibition at 16 µg/mL: 77.4%
[2]
  inhibition at 16 µg/mL: 60%
[3]
  inhibition at 16 µg/mL: 45.6%

## COc1ccc(C2c3ccc4ccccc4c3Oc3[nH]c(=S)[nH]c(=S)c32)cc1 (stereo not drawn)
[4]
  MIC: 125 µg/mL (≈ 309 µM)

## COC(=O)C1=C(N)OC2=C(CN(C(=O)c3cccs3)C/C2=C\c2ccc(Cl)s2)C1c1ccc(Cl)s1 (stereo not drawn)
[1]
  inhibition at 16 µg/mL: 74.1%
[5]
  inhibition at 16 µg/mL: 72.2%
[2]
  inhibition at 16 µg/mL: 100%
[6]
  inhibition at 16 µg/mL: 67.5%
[3]
  inhibition at 16 µg/mL: 72.8%
[7]
  EC50: 0.824 µg/mL (≈ 1.46 µM)
[8]
  IC50: 0.907 µg/mL (≈ 1.6 µM)

## N#CC1=C(N)OC2=C(CN(C(=O)c3cccs3)C/C2=C\c2ccc(Br)s2)C1c1ccc(Br)s1 (stereo not drawn)
[1]
  inhibition at 16 µg/mL: 48.9%
[5]
  inhibition at 16 µg/mL: 44.3%
[6]
  inhibition at 16 µg/mL: 42.2%
[3]
  inhibition at 16 µg/mL: 41%
[7]
  EC50: 2.71 µg/mL (≈ 4.36 µM)
[8]
  IC50: 3.031 µg/mL (≈ 4.88 µM)

## N#CC1=C(N)OC2=C(CN(C(=O)c3cccs3)C/C2=C\c2cccs2)C1c1cccs1 (stereo not drawn)
[1]
  inhibition at 16 µg/mL: 37.6%
[5]
  inhibition at 16 µg/mL: 33.7%
[2]
  inhibition at 16 µg/mL: 73.6%
[6]
  inhibition at 16 µg/mL: 30.2%

## Cc1ccc(/C=C2\CN(C)CC3=C2OC(N)=C(C#N)C3c2ccc(C)o2)o1 (stereo not drawn)
[1]
  inhibition at 16 µg/mL: 81.6%
[5]
  inhibition at 16 µg/mL: 84.8%
[2]
  inhibition at 16 µg/mL: 65.6%
[6]
  inhibition at 16 µg/mL: 74%
[3]
  inhibition at 16 µg/mL: 48.5%

## N#CC1=C(N)OC2=C(CN(C(=O)c3ccco3)C/C2=C\c2ccc(Br)o2)C1c1ccc(Br)o1 (stereo not drawn)
[1]
  inhibition at 16 µg/mL: 55.2%
[5]
  inhibition at 16 µg/mL: 55.8%
[2]
  inhibition at 16 µg/mL: 100%
[6]
  inhibition at 16 µg/mL: 49%
[3]
  inhibition at 16 µg/mL: 50.5%
[7]
  EC50: 1.71 µg/mL (≈ 2.98 µM)
[8]
  IC50: 1.86 µg/mL (≈ 3.24 µM)

## CN1CC2=C(OC(N)=C(C#N)C2c2ccc(Cl)s2)/C(=C/c2ccc(Cl)s2)C1 (stereo not drawn)
[1]
  inhibition at 16 µg/mL: 64.9%
[5]
  inhibition at 16 µg/mL: 66%
[2]
  inhibition at 16 µg/mL: 48.5%
[6]
  inhibition at 16 µg/mL: 46.8%
[3]
  inhibition at 16 µg/mL: 34.5%

## N#CC1=C(N)OC2=C(CN(C(=O)c3ccco3)C/C2=C\c2ccc(Br)s2)C1c1ccc(Br)s1 (stereo not drawn)
[1]
  inhibition at 16 µg/mL: 31.6%
[5]
  inhibition at 16 µg/mL: 28.1%
[2]
  inhibition at 16 µg/mL: 66.5%
[6]
  inhibition at 16 µg/mL: 25.7%
[3]
  inhibition at 16 µg/mL: 25%

## N#CC1=C(N)OC2=C(CN(C(=O)c3ccco3)C/C2=C\c2cccs2)C1c1cccs1 (stereo not drawn)
[1]
  inhibition at 16 µg/mL: 27.9%
[2]
  inhibition at 16 µg/mL: 62.7%
[3]
  inhibition at 16 µg/mL: 23.8%

## Cc1ccc(/C=C2\CN(C)CC3=C2OC(N)=C(C#N)C3c2ccc(C)s2)s1 (stereo not drawn)
[1]
  inhibition at 16 µg/mL: 58.6%
[5]
  inhibition at 16 µg/mL: 57.6%
[6]
  inhibition at 16 µg/mL: 38.9%
[3]
  inhibition at 16 µg/mL: 27.6%

## COC(=O)C1=C(N)OC2=C(CN(C(=O)c3cccs3)C/C2=C\c2ccc(Br)o2)C1c1ccc(Br)o1 (stereo not drawn)
[1]
  inhibition at 16 µg/mL: 80%
[5]
  inhibition at 16 µg/mL: 78.3%
[2]
  inhibition at 16 µg/mL: 100%
[6]
  inhibition at 16 µg/mL: 73.1%
[3]
  inhibition at 16 µg/mL: 80.9%
[7]
  EC50: 0.61 µg/mL (≈ 0.98 µM)
[8]
  IC50: 0.748 µg/mL (≈ 1.2 µM)

## N#CC1=C(N)OC2=C(CN(C(=O)c3ccco3)C/C2=C\c2ccco2)C1c1ccco1 (stereo not drawn)
[1]
  inhibition at 16 µg/mL: 65.4%
[2]
  inhibition at 16 µg/mL: 100%
[6]
  inhibition at 16 µg/mL: 58.2%
[7]
  EC50: 1.17 µg/mL (≈ 2.82 µM)
[8]
  IC50: 1.425 µg/mL (≈ 3.43 µM)

## COC(=O)C1=C(N)OC2=C(CN(C)C/C2=C\c2ccc(Cl)s2)C1c1ccc(Cl)s1 (stereo not drawn)
[1]
  inhibition at 16 µg/mL: 49.6%
[5]
  inhibition at 16 µg/mL: 42.9%
[2]
  inhibition at 16 µg/mL: 35.2%
[6]
  inhibition at 16 µg/mL: 30%
[3]
  inhibition at 16 µg/mL: 23.6%

## Cc1ccc(/C=C2\CN(C(=O)c3ccco3)CC3=C2OC(N)=C(C#N)C3c2ccc(C)o2)o1 (stereo not drawn)
[1]
  inhibition at 16 µg/mL: 46.2%
[2]
  inhibition at 16 µg/mL: 85.4%
[6]
  inhibition at 16 µg/mL: 39%
[3]
  inhibition at 16 µg/mL: 38.1%

## N#CC1=C(N)OC2=C(CN(C(=O)c3cccs3)C/C2=C\c2ccc(Br)o2)C1c1ccc(Br)o1 (stereo not drawn)
[1]
  inhibition at 16 µg/mL: 62.7%
[2]
  inhibition at 16 µg/mL: 100%
[6]
  inhibition at 16 µg/mL: 54.5%
[3]
  inhibition at 16 µg/mL: 55.2%
[7]
  EC50: 1.3 µg/mL (≈ 2.21 µM)
[8]
  IC50: 1.522 µg/mL (≈ 2.58 µM)

## COc1ccc(C2c3ccc4ncccc4c3Oc3nc[nH]c(=S)c32)cc1 (stereo not drawn)
[4]
  MIC: 125 µg/mL (≈ 335 µM)

## COC(=O)C1=C(N)OC2=C(CN(C)C/C2=C\c2ccco2)C1c1ccco1 (stereo not drawn)
[1]
  inhibition at 16 µg/mL: 73.7%
[5]
  inhibition at 16 µg/mL: 76.5%
[2]
  inhibition at 16 µg/mL: 56.7%
[6]
  inhibition at 16 µg/mL: 60.9%
[3]
  inhibition at 16 µg/mL: 41.7%
